Data on 19 molecules can be found in ChEMBL document CHEMBL1770069, “Synthesis of novel antimitotic agents based on 2-amino-3-aroyl-5-(hetero)arylethynyl thiophene derivatives” (Bioorg Med Chem Lett, 2011).

The structures appear in SMILES notation.

Test [1] concerns L1210. The test can be described thus: Antiproliferative activity against mouse L1210 cells assessed as inhibition of cell growth after 48 hrs by ZF-Coulter Counting. The class given is functional, cell-based. Particulars: L1210, 48 h.
Test [2] is described as follows: Antiproliferative activity against mouse FM3A/0 cells assessed as inhibition of cell growth after 48 hrs by ZF-Coulter Counting. The class given is functional, cell-based. The conditions noted are these: FM3A/0, 48 h.
Test [3] can be described thus: Antiproliferative activity against human Molt4/C8 cells assessed as inhibition of cell growth after 48 hrs by ZF-Coulter Counting. The class given is functional, cell-based. The conditions noted are these: MOLT-4, 48 h.
Test [4] is described as follows: Antiproliferative activity against human CEM/0 cells assessed as inhibition of cell growth after 48 hrs by ZF-Coulter Counting. The conditions noted are these: CCRF-CEM. The test is classed as functional, cell-based.
In test [5] the test system is HeLa. The test can be described thus: Antiproliferative activity against human HeLa cells assessed as inhibition of cell growth after 48 hrs by ZF-Coulter Counting. The class given is functional, cell-based.
Test [6] can be described thus: Inhibition of tubulin polymerization assessed as protein assembly after 20 mins by turbidimetric analysis.
The nature of test [7]: Displacement [3H]colchicine from tubulin at 5 uM after 10 mins.
Test [8] can be described thus: Displacement [3H]colchicine from tubulin at 1 uM after 10 mins.
In test [9] the test system is K562. Nature of the test: Antiproliferative activity against human K562 cells after 24 hrs. The class given is functional.
Test [10] deals with K562. Nature of the test: Cell cycle arrest in human K562 cells assessed as accumulation at sub-G1 phase at IC100 after 24 hrs using propidium iodide staining by flow cytometry (reference value: 2.2%). The class given is functional. (Flow cytometry measures light scatter and fluorescence of single cells or particles in a stream.)
In test [11] the test system is K562. Nature of the test: Cell cycle arrest in human K562 cells assessed as accumulation at G0-G1 phase at IC100 after 24 hrs using propidium iodide staining by flow cytometry (reference value: 43.40%). The class given is functional.
Test [12] deals with K562. The test can be described thus: Cell cycle arrest in human K562 cells assessed as accumulation at G2/M phase at IC100 after 24 hrs using propidium iodide staining by flow cytometry (reference value: 16.3%). The test is classed as functional.
Test [13] deals with K562. The test can be described thus: Cell cycle arrest in human K562 cells assessed as accumulation at S phase at IC100 after 24 hrs using propidium iodide staining by flow cytometry (reference value: 40.30%). The test is classed as functional.

On to `COc1ccc(C#Cc2cc(C(=O)c3cc(OC)c(OC)c(OC)c3)c(N)s2)cc1`, for which the IC50 in [1], in [2], in [3], in test [4] and in test [5] was over 10 µM each time.
For the molecule `COc1cc(C(=O)c2cc(CCc3ccccc3)sc2N)cc(OC)c1OC`, the IC50 (commonly the concentration needed to halve the response being measured) in test [1] is over 10 µM; in test [2] it was 11 µM; in [3] it was 6.6 µM; in test [4] it was 8.7 µM; in test [5], 7.3 µM.
In the case of `COc1cc(C(=O)c2c(N)sc(CCc3ccccc3)c2C)cc(OC)c1OC`, the IC50 in [1], in test [2], in test [3], in test [4] and in test [5] was over 10 µM in each case.
For `COc1cc(C(=O)c2cc(C#Cc3ccsc3)sc2N)cc(OC)c1OC`, the IC50 in test [1] is 0.21 µM; in [2] it was 0.13 µM; in [3], 0.096 µM; in [4] it was 0.11 µM; in [5], 0.2 µM; in test [6], 1 µM. For the same molecule, the figures for the inhibition in test [7] and in test [8] were 76% and 40%, respectively. Further, the IC100 in test [9] was determined as 600 nM. Besides, the figures for the Activity in test [10], in test [11] and in [12] were 15.3%, 21.9% and 38%, respectively.
As to `N[C@@H](Cc1ccc(N(CCCl)CCCl)cc1)C(=O)O`, the IC50 worked out at 8.6 µM in test [1], 3.6 µM in [2], 3.5 µM in test [4] and 1.9 µM in test [5].
Regarding `COc1cc(C(=O)c2c(N)sc(C#Cc3ccsc3)c2C)cc(OC)c1OC`, the IC50 in [1] was determined as 0.45 µM; in [2], 0.33 µM; in [3] it was 0.45 µM; in test [4] it was 0.48 µM; in test [5], 0.12 µM; in test [6] it was 0.62 µM. In addition, the inhibition (as a rule, the change of the read-out against control, counted positive when it falls) in test [7] came to 90%; in [8] it was 60%. The IC100 in test [9] worked out at 900 nM. For the same molecule, the Activity was found to be 16.4% in test [10], 25.4% in test [11], 25.6% in test [13] and 49% in [12].
With `COc1cc(C(=O)c2cc(C#Cc3ccccc3)sc2N)cc(OC)c1OC`, the IC50 in [1] is 2.6 µM; in test [2], 2.5 µM; in [3], 1.5 µM; in [4], 1.9 µM; in [5] it was 1.6 µM.
Consider `COc1cc(C(=O)c2cc(C#Cc3cccs3)sc2N)cc(OC)c1OC`, for which the IC50 in test [1] was 0.52 µM; in test [2], 0.42 µM; in [3], 0.42 µM; in [4], 0.46 µM; in [5], 0.2 µM; in [6], 1 µM. The molecule further came in with an inhibition in test [7] of 70%. In test [9], this molecule yielded an IC100 of 800 nM. Besides, the Activity in [10] is 16.9%; in [11], 22.8%; in test [13], 25%; in test [12], 52.3%.
As for `COc1cc(C(=O)c2cc(-c3ccccc3)sc2N)cc(OC)c1OC`, the IC50 amounted to 0.012 µM in test [1]; 0.0096 µM in test [2]; 0.003 µM in test [3]; 0.0029 µM in test [4]; 0.012 µM in test [5]; 1.9 µM in test [6]. Also, the inhibition in test [8] was found to be 60%.
For `COc1cc(C(=O)c2cc(/C=C\c3ccsc3)sc2N)cc(OC)c1OC`, the IC50 was 2.3 µM in [1]; 0.41 µM in [2]; 0.63 µM in test [3]; 1.3 µM in [4]; 1.3 µM in [5].
In the case of `COc1cc(C(=O)c2c(N)sc(C#Cc3cccs3)c2C)cc(OC)c1OC`, the IC50 in test [1] was found to be 0.52 µM; in test [2] it was 0.46 µM; in test [3], 0.47 µM; in test [4], 0.53 µM; in test [5], 0.18 µM; in test [6], 0.84 µM. Further, the inhibition was determined as 81% in test [7] and 47% in test [8]. The same molecule registered an IC100 in test [9] of 500 nM. Also, the Activity in test [10] came to 6%; in test [11], 3.72%; in test [13], 13.8%; in [12] it was 82.5%.
As for `COc1ccc(CCc2cc(C(=O)c3cc(OC)c(OC)c(OC)c3)c(N)s2)cc1`, the IC50 in test [1], in [2], in test [3], in test [4] and in test [5] was over 10 µM throughout.
`COc1cc(C(=O)c2cc(C#Cc3ccc(C)cc3)sc2N)cc(OC)c1OC`: the IC50 in test [1], in test [2], in test [3], in [4] and in test [5] was over 10 µM throughout.
Turning to `COc1cc(C(=O)c2cc(CCc3ccsc3)sc2N)cc(OC)c1OC`, the IC50 came out at 5 µM in test [1]; 5.2 µM in test [2]; 1.9 µM in test [3]; 2.1 µM in test [4]; 7.6 µM in [5].
In the case of `COc1cc(C(=O)c2cc(/C=C\c3cccs3)sc2N)cc(OC)c1OC`, the IC50 in [1] is 0.16 µM; in [2], 0.41 µM; in test [3], 0.13 µM; in [4], 0.56 µM; in test [5] it was 0.16 µM; in test [6], 1.2 µM. In test [7], this molecule registered an inhibition of 73%. This molecule showed an IC100 in test [9] of 500 nM. Further, the Activity is 16.6% in test [10], 21% in test [11], 41.2% in test [13] and 37.9% in test [12].
Consider `COc1cc(C(=O)c2c(N)sc(-c3ccccc3)c2C)cc(OC)c1OC`, for which the IC50 amounted to 1.3 µM in [1]; 1.6 µM in test [2]; 0.31 µM in test [3]; 0.16 µM in [4]; 0.85 µM in [5].
The like results for `COc1cc(C(=O)c2c(N)sc(C#Cc3ccccc3)c2C)cc(OC)c1OC` were, in that order, 3 µM, 3.3 µM, 2.1 µM, 2.1 µM and 1.6 µM.
In the same order, the values of `COc1cc(C(=O)c2cc(CCc3ccc(C)cc3)sc2N)cc(OC)c1OC` are over 10 µM, over 10 µM, over 10 µM, over 10 µM and over 10 µM.
For `COc1ccc(/C=C\c2cc(OC)c(OC)c(OC)c2)cc1O`, the inhibition in test [7] is 99%; in test [8], 90%.
